The values below are quoted from earlier work in patent US20120177693A1, “DEEP LUNG PULMONARY DELIVERY OF TREPROSTINIL” (Aradigm Corporation, priority 2008, published 2012).

For the data set the following is noted: inhaled; Voswinckel et al.; cited from earlier work.

For `CC#CCC(C)[C@H](O)/C=C/[C@@H]1[C@H]2C/C(=C/CCCC(=O)O)C[C@H]2C[C@H]1O` (some centres unmarked) [iloprost], the Plasma half-life entry is listed as “about 8 min” and the “Time of peak plasma levels” value is on record as “immediately after the completion of the inhalation session”.
